Results published in PubChem BioAssay (NCI).
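Briefly, cells in 96-well plates were exposed to five compound concentrations for 48 h, and endpoints were estimated by linear interpolation. TGI: total growth inhibition.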

Tests used:
Assay in all cases: NCI tumour cell line growth inhibition, 48 h
EKVX NSCLC = tested on: EKVX NSCLC
MOLT-4 leukemia = tested on: MOLT-4 leukemia
SF-268 CNS = tested on: SF-268 CNS
SK-MEL-5 melanoma = tested on: SK-MEL-5 melanoma
MDA-MB-435 = tested on: MDA-MB-435
NCI-H522 lung = tested on: NCI-H522 lung
SF-295 CNS = tested on: SF-295 CNS
OVCAR-3 ovarian = tested on: OVCAR-3 ovarian
HCT-116 colon = tested on: HCT-116 colon
DU-145 prostate = tested on: DU-145 prostate
OVCAR-4 ovarian = tested on: OVCAR-4 ovarian
SNB-75 CNS = tested on: SNB-75 CNS
MDA-MB-231 breast = tested on: MDA-MB-231 breast
K-562 leukemia = tested on: K-562 leukemia
LOX IMVI melanoma = tested on: LOX IMVI melanoma
HCT-15 colon = tested on: HCT-15 colon
HOP-62 NSCLC = tested on: HOP-62 NSCLC
NCI-H23 lung = tested on: NCI-H23 lung
SK-MEL-2 melanoma = tested on: SK-MEL-2 melanoma
SR leukemia = tested on: SR leukemia

SMILES	TGI (EKVX NSCLC) [µM]	TGI (MOLT-4 leukemia) [µM]	TGI (SF-268 CNS) [µM]	TGI (SK-MEL-5 melanoma) [µM]	TGI (MDA-MB-435) [µM]	TGI (NCI-H522 lung) [µM]	TGI (SF-295 CNS) [µM]	TGI (OVCAR-3 ovarian) [µM]	TGI (HCT-116 colon) [µM]	TGI (DU-145 prostate) [µM]	TGI (OVCAR-4 ovarian) [µM]	TGI (SNB-75 CNS) [µM]	TGI (MDA-MB-231 breast) [µM]	TGI (K-562 leukemia) [µM]	TGI (LOX IMVI melanoma) [µM]	TGI (HCT-15 colon) [µM]	TGI (HOP-62 NSCLC) [µM]	TGI (NCI-H23 lung) [µM]	TGI (SK-MEL-2 melanoma) [µM]	TGI (SR leukemia) [µM]
CSc1nnc(SC)nn1	30.8	2.37	29.4	29.6	32.4	31.6	33.9	31.6	23.9	45.4	32.5	31.2	39.7	27.4	38	35.2	29.1	49.4	–	–
O=c1c2ccccc2nc(Cc2nc(-c3ccc(Cl)cc3)cs2)n1-c1ccc(Cl)cc1	> 100	> 100	> 100	> 100	> 100	> 100	> 100	> 100	> 100	> 100	> 100	> 100	> 100	> 100	> 100	> 100	> 100	> 100	> 100	–
O=c1cc(N2CCCC2)[nH]c(=O)n1-c1cccc(Cl)c1	> 100	> 100	> 100	–	> 100	> 100	> 100	> 100	> 100	> 100	> 100	> 100	> 100	> 100	> 100	> 100	> 100	> 100	> 100	–
O=C(NC(Cc1ccccc1)(Cc1ccc(O)cn1)C(=O)O)c1ccccc1 (stereo not given)	> 100	> 100	> 100	> 100	> 100	> 100	> 100	> 100	> 100	> 100	> 100	> 100	> 100	> 100	> 100	> 100	> 100	> 100	> 100	–
Cc1ccc(S(=O)(=O)N/N=C2/CCCOC2)cc1	> 100	> 100	> 100	> 100	> 100	> 100	> 100	> 100	> 100	> 100	> 100	–	> 100	> 100	> 100	> 100	> 100	> 100	> 100	> 100
CCOC(C)O[C@H]1C(=O)OCC1(C)C (stereo not given in full)	> 100	> 100	> 100	> 100	> 100	–	> 100	> 100	–	> 100	> 100	> 100	> 100	> 100	> 100	> 100	> 100	> 100	> 100	> 100
Clc1ccc(-c2cc3nc4ccccc4nc3o2)cc1	> 100	> 100	> 100	> 100	> 100	–	> 100	> 100	> 100	> 100	> 100	48.3	> 100	> 100	> 100	> 100	–	> 100	> 100	> 100
COC(=O)Nc1nc2ccc(S(=O)(=O)SC)cc2[nH]1	62.5	> 100	> 100	> 100	12.2	> 100	> 100	> 100	24.5	27.1	84.5	–	40.1	> 100	22.1	19.4	> 100	–	26.9	62.8
CCOC(=O)Cc1nc2cc(F)c(F)cc2[nH]c1=O	> 100	> 100	> 100	> 100	> 100	–	> 100	> 100	> 100	> 100	> 100	> 100	> 100	> 100	> 100	> 100	> 100	> 100	> 100	–
CC1S/C(=N\N=C2/C(=O)Nc3ccc(Br)cc32)N(C2CCCCC2)C1=O (stereo not given)	22.2	> 100	22.3	> 100	23.1	–	16.8	10	6.61	17.6	4.89	–	6.76	> 100	13.6	16	4.25	15.6	3.65	39.4
COc1cc(Br)cc2cc(-c3cn4c(n3)sc3ccccc34)c(=O)oc12	52.1	65.4	> 75	> 75	> 75	28.7	58.4	54.5	> 75	48.1	> 75	–	72.5	46.4	56.4	> 75	> 75	> 75	70.6	> 75
N#C/C(=C/NC(N)=S)C(N)=O	> 100	–	> 100	> 100	> 100	–	> 100	> 100	> 100	> 100	> 100	> 100	> 100	–	> 100	> 100	> 100	> 100	> 100	–
CCOC1=NC(O)c2cccn2-c2sccc21 (stereo not given)	–	> 100	> 100	> 100	> 100	> 100	> 100	> 100	> 100	> 100	> 100	–	> 100	> 100	–	> 100	> 100	> 100	> 100	> 100
